One experiment concerns the target T1, USP28 (Homo sapiens (Human), UniProt Q96RU2). Put plainly: Competitive activity-based protein profiling (Ub-VME labeling, Western blot) in K562 cell lysate. The format is binding. Conditions: K562 cells lysed, treated with compound for 1 h followed by incubation with Ub-VME; Western blot (FIG. 2). As to the method: K562 cells were lysed and treated with indicated concentrations of compound 1 for 1 h followed by incubation with Ub-VME. Ub-VME covalently modifies USP28, resulting in higher MW band observed by Western blot.
Cells were pelleted, washed with PBS buffer, lysed on ice (20 mM Tris pH 8, 150 mM NaCl, 1% NP-40, 10% glycerol, 1 mM TCEP, phosphatase inhibitor cocktails (Sigma P5726 and Calbiochem 524624), and protease inhibitors (pepstatin, leupeptin, PMSF, and aprotinin), and clarified by centrifugation. Protein content was quantified by BCA and diluted to 2 mg/mL in lysis buffer. Compounds were added at desired concentrations and incubated at room temperature for 30 minutes. Samples were then supplemented with 2 uM HA-Ub-VS and incubated at room temperature with shaking for 15 minutes. Reactions were quenched with 4×LDS sample buffer (Thermo Fisher B0007) supplemented with 10% BME, vortexed vigorously, and heated to 95° C. for 5 minutes. Samples were resolved by SDS-PAGE and analyzed by Western blot with the indicated antibodies.
(In general: In western blotting, separated proteins are transferred to a membrane and probed.)
T1 sequence (Q96RU2 whole entry): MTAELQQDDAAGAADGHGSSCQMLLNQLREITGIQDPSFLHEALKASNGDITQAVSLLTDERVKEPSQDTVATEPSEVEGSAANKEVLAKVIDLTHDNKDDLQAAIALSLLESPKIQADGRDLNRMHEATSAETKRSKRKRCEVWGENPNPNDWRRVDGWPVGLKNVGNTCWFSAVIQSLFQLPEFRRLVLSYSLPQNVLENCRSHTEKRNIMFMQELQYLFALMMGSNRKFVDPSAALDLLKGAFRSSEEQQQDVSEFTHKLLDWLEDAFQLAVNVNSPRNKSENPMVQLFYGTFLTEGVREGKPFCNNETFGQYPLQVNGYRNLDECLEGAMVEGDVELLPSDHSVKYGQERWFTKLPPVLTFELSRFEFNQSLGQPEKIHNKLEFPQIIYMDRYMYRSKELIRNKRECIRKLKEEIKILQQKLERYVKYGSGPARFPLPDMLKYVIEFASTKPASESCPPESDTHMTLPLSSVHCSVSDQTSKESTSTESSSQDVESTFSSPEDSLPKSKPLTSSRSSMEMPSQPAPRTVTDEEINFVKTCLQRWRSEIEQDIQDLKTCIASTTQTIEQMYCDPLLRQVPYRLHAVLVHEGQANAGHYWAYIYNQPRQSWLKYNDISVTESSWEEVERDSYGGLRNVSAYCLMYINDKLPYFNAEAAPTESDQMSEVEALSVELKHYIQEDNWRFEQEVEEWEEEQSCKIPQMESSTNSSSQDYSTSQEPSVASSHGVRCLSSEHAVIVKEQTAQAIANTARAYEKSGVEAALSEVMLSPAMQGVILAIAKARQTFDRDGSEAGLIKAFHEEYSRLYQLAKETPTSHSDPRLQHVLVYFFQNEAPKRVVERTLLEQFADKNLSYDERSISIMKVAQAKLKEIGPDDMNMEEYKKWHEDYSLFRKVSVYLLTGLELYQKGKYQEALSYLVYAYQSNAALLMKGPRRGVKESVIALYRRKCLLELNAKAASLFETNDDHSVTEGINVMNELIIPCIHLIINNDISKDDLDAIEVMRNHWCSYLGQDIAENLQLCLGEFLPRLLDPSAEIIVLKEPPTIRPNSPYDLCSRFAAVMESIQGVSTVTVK
As to `CCCc1nc2sc3c(NCCc4ccc(OC)c(OC)c4)ncnc3c2c2c1CCC2` [Compound 1], the “Target engagement: labeling of USP28 by covalent Ub-VME probe” value is recorded as “prevents labeling of USP28 by the covalent Ub-VME probe”.

A further experiment concerns the target T1, USP28. The experiment is described as follows: Ubiquitin-Rhodamine110 assay. The format is biochemical. The note with it: USP28 at 1 nM; 30 minutes pre-incubation at room temperature; Ubiquitin-Rho110 substrate 125 nM. As to the method: USP28 (at 1 nM) was pre-incubated with different concentrations of inhibitors or DMSO as a control in 50 mM Tris pH 8, 50 mM NaCl, 0.002% Tween-20, 5 mM DTT. Compounds and protein were incubated for 30 minutes at room temperature prior to the addition of Ubiquitin-Rho110 (Boston Biochem) substrate for a final concentration of 125 nM. The initial rate of the reaction was measured by collecting fluorescence data at one-minute interval over 30-minute period using a Clariostar® fluorescence plate reader at excitation and emission wavelength of 485 nm and 535 nm, respectively. The calculated initial rate values were plotted against inhibitor concentrations to determine IC50s. All the experimental data were plotted using GraphPad Prism®.
Usually IC50 stands for the point on the concentration scale where inhibition reaches its midpoint. Low readings indicate greater potency in that assay, high ones weaker potency in that assay. With `COc1ccc(CCNC(=O)c2sc3nc4c(c(C)c3c2N)CCC4)cc1OC` [Compound 26], the IC50 was below 1000 nM.
Same read-out and setting: with `CCCc1nc2sc3c(NCc4ccc(OC)c(OC)c4)ncnc3c2c2c1CCC2` [Compound 9] the figure was below 1000 nM; with `CCCc1nc2sc3c(NCCc4ccc(OC)cc4)ncnc3c2c2c1CCC2` [Compound 10], below 1000 nM; with `CCCc1nc2sc(C(=O)NC(C)Cc3ccc(OC)c(OC)c3)c(N)c2c2c1CCC2` (centres unmarked) [Compound 37], below 1000 nM.
The same measure, in the same setting: to `COc1ccc(CCNC(=O)c2sc3nc(C)ccc3c2N)cc1OC` [Compound 20] belongs below 1000 nM.
Same read-out and setting: to `CCCc1ccc2c(n1)sc1c(NCCc3ccc(OC)c(OC)c3)ncnc12` [Compound 38] belongs below 1000 nM; to `CCCc1nc2sc(C(=O)NCCc3ccc(N4CCNCC4)cc3)c(N)c2c2c1CCC2` [Compound 21], below 1000 nM.
With `CCCc1nc2sc3c(NCCc4ccc(N(C)C)cc4)ncnc3c2c2c1CCC2` [Compound 12], the IC50 is below 1000 nM.
Still for that read-out and setting: with `COc1ccc(CCNc2ncnc3c2sc2ncc4c(c23)CCC4)cc1OC` [Compound 8] the figure was 1000 to 10000 nM; with `CCCc1nc2sc3c(NCCc4cc(OC)c(OC)c(OC)c4)ncnc3c2c2c1CCC2` [Compound 16], 1000 to 10000 nM.
As for `CCCc1ccc2c(n1)sc1c(NCC(C)c3ccc(OC)c(OC)c3)ncnc12` (centres unmarked) [Compound 43], the IC50 was below 1000 nM.
Compound `CCCc1nc2sc3c(NCCc4c[nH]c5ccccc45)ncnc3c2c2c1CCC2` [Compound 15] had an IC50 of 1000 to 10000 nM.
Turning to `CCCCCc1nc2sc(C(=O)NCCc3ccc(OC)c(OC)c3)c(N)c2c2c1CCC2` [Compound 49], the IC50 is below 1000 nM.
On the same count and under the same terms, with `CCCc1nc2sc(C(=O)NCC(C)c3ccc(OC)c(OC)c3)c(N)c2c2c1CCC2` (centres unmarked) [Compound 36] the figure was below 1000 nM; with `CCCc1nc2sc3c(NCCc4ccc(OC)c(OC)c4)ncnc3c2c2c1CCC2` [Compound 1], below 1000 nM; with `CCCc1nc2sc(C(=O)NC[C@H](C)c3ccccc3)c(N)c2c2c1CCC2` [Compound 40], below 1000 nM.
On the same count and under the same terms, to `CCCc1nc2sc3c(NCCc4ccc(Cl)c(Cl)c4)ncnc3c2c2c1CCC2` [Compound 4] belongs 10000 to 100000 nM; to `COc1ccc(CCNC(=O)c2sc3nc(C)c4c(c3c2N)CCC4)cc1OC` [Compound 25], below 1000 nM.
Same read-out and setting: with `CCCc1nc2sc3c(NCCc4ccc5c(c4)OCCO5)ncnc3c2c2c1CCC2` [Compound 13] the figure was 1000 to 10000 nM; with `CCCCCc1nc2sc3c(NCCc4ccc(OC)c(OC)c4)ncnc3c2c2c1CCC2` [Compound 48], below 1000 nM; with `CCCc1nc2sc(C(=O)N[C@@H](C)Cc3ccc(OC)cc3)c(N)c2c2c1CCC2` [Compound 47], below 1000 nM.
Take `CCCc1nc2sc(C(=O)NC[C@@H](C)c3ccccc3)c(N)c2c2c1CCC2` [Compound 41]: the IC50 is below 1000 nM.
Still for that read-out and setting: to `CCCc1ccc2c(N)c(C(=O)NCCc3ccc(OC)c(OC)c3)sc2n1` [Compound 28] belongs below 1000 nM; to `CCCc1nc2sc3c(NCc4ccc(Cl)c(Cl)c4)ncnc3c2c2c1CCC2` [Compound 5], above 100000 nM; to `CCCc1nc2sc3c(NCCc4ccc(OC)c(OC)c4)ncnc3c2c2c1CCCC2` [Compound 45], below 1000 nM.
Regarding `CCCc1nc2sc(C(=O)NCCc3ccc(OC)c(OC)c3)c(N)c2c2c1CCC2` [Compound 18], the IC50 is below 1000 nM.
`COc1ccc(CCNc2ncnc3c2sc2ncccc23)cc1OC` [Compound 6] came in with an IC50 of 1000 to 10000 nM.
With `Cc1ccc2c(N)c(C(=O)NCCc3ccc(N4CCNCC4)cc3)sc2n1` [Compound 30], the IC50 was below 1000 nM.
`CCCc1nc2sc(C(=O)N[C@H](C)Cc3ccc(OC)cc3)c(N)c2c2c1CCC2` [Compound 50] registered an IC50 below 1000 nM.
Compound `CCCc1nc2sc3c(NCc4ccco4)ncnc3c2c2c1CCC2` [Compound 2] yielded a half-maximal inhibitory concentration (IC50) below 1000 nM.
The compound `Cc1ccc2c(N)c(C(=O)NCCc3ccc(C4CC5CCC(C4)N5C(=O)OC(C)(C)C)cc3)sc2n1` (centres unmarked) [Compound 24] yielded an IC50 below 1000 nM.
On the same count and under the same terms, with `CCCc1nc2sc3c(OCCc4ccc(OC)c(OC)c4)ncnc3c2c2c1CCC2` [Compound 44] the figure was 1000 to 10000 nM; with `CCCc1nc2oc(C(=O)NCCc3ccc(OC)c(OC)c3)c(N)c2c2c1CCC2` [Compound 27], below 1000 nM.
In the case of `CCCc1nc2sc(C(=O)NCCc3ccc(OC)c(OC)c3)c(NCc3ccccc3)c2c2c1CCC2` [Compound 33], the IC50 is below 1000 nM.
In turn, `CCCc1nc2sc3c(NCCCc4ccc(OC)c(OC)c4)ncnc3c2c2c1CCC2` [Compound 14] came in with an IC50 of 10000 to 100000 nM.
The same measure, in the same setting: to `Cc1ccc2c(N)c(C(=O)NCCc3ccc(C4CC5CCC(C4)N5)cc3)sc2n1` (centres unmarked) [Compound 23] belongs below 1000 nM; to `CCCc1nc2sc(C(=O)NCCc3ccc(O)c(O)c3)c(N)c2c2c1CCC2` [Compound 32], below 1000 nM.
With `Cc1ccc2c(N)c(C(=O)NCCc3ccc(N4CCN(C(=O)OC(C)(C)C)CC4)cc3)sc2n1` [Compound 31], the IC50 was below 1000 nM.
Same read-out and setting: to `CCCc1ccc2c(n1)sc1c(NCCc3ccc4c(c3)OCCO4)ncnc12` [Compound 39] belongs below 1000 nM; to `CCCc1nc2sc(C(=O)NCCc3ccc(OC)c(OC)c3)c(N)c2cc1C(=O)N(C)C` [Compound 35], below 1000 nM; to `CCCc1nc2sc3c(N(C)CCc4ccc(OC)c(OC)c4)ncnc3c2c2c1CCC2` [Compound 7], 10000 to 100000 nM.
Same read-out and setting: to `CCCc1nc2sc(C(=O)NCCc3ccc(OC)c(OC)c3)c(NC(C)=O)c2c2c1CCC2` [Compound 29] belongs below 1000 nM; to `CCCc1nc2sc3c(NC4CCCCC4)ncnc3c2c2c1CCC2` [Compound 3], 10000 to 100000 nM.
Still for that read-out and setting: with `CCCc1nc2sc(C(=O)NCCc3ccc(OC)c(OC)c3)c(N)c2c2c1CCCC2` [Compound 46] the figure was below 1000 nM.
As to `CCCc1nc2sc3c(NCCc4cccc(OC)c4)ncnc3c2c2c1CCC2` [Compound 11], the IC50 was 10000 to 100000 nM.
The same measure, in the same setting: with `CCCc1ccc2c(n1)sc1c(NCCc3ccc(N(C)C)cc3)ncnc12` [Compound 42] the figure was below 1000 nM.
The same measure, in the same setting: to `Cc1ccc2c(N)c(C(=O)NCCc3ccc(C4CCNCC4)cc3)sc2n1` [Compound 22] belongs below 1000 nM.
Still for that read-out and setting: with `CCCc1nc2sc3c(NCCc4ccc(N5CCNCC5)cc4)ncnc3c2c2c1CCC2` [Compound 19] the figure was below 1000 nM; with `CCCc1nc2sc3c(NCCc4cccs4)ncnc3c2c2c1CCC2` [Compound 17], below 1000 nM.
